The supplement of paper PMC10627819

Assays:
B. subtilis 168 [1] = experiment: fitness (endpoint OD595 vs no drug) (fraction); higher = more growth
Summary of the method: (§1)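 Volumes were 30 µl per well, or 55 µl for S. pneumoniae, in 384-well plates inoculated at OD595 0.01. Media were TSB, LB Lennox or CY at 37 °C, and OD595 was read every 30 min for 14 h with first-reading background subtraction. Fitness is the ratio of optical density at stationary-phase entry to the robust mean of no-drug controls. That ratio is capped at 1.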

S. pneumoniae D39V [2] = experiment: as above
Summary of the method: as §1

B. subtilis 168 [3] = experiment: Bliss interaction score (quartile over a dose matrix) (fitness difference); higher = more antagonism (negative = synergy)
Summary of the method: (§2)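 Fitness was OD595 at entry into stationary phase divided by the plate's robust no-drug mean and capped at 1; single-drug fitness was inferred from combination data. The Bliss score is observed minus expected (product) fitness, summarised by quartiles over technical, biological and donor/recipient replicates.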

S. aureus DSM 20231 = experiment: as above
Summary of the method: as §2

S. aureus Newman = experiment: as above
Summary of the method: as §2

S. pneumoniae D39V [4] = experiment: as above
Summary of the method: as §2
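Throughout, for Bliss interaction score (quartile over a dose matrix): first quartile when negative (synergy) and third quartile when positive (antagonism).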

CN(C)C(=O)C(CCN1CCC(O)(c2ccc(Cl)cc2)CC1)(c1ccccc1)c1ccccc1 [Loperamide] + COc1ccc(C[C@H](N)C(=O)N[C@H]2[C@@H](O)[C@H](n3cnc4c(N(C)C)ncnc43)O[C@@H]2CO)cc1 [Puromycin]
fitness
Details	partner 0.39 µg/mL	partner 0.78 µg/mL	partner 1 µg/mL	partner 1.56 µg/mL	partner 2 µg/mL	partner 4 µg/mL
B. subtilis 168 [1], first compound 25 µg/mL	0.82	0.767	–	0.718	–	–
B. subtilis 168 [1], first compound 50 µg/mL	0.0429	0.038	–	0.0393	–	–
B. subtilis 168 [1], first compound 100 µg/mL	0.0261	0.0107	–	0.0233	–	–
S. pneumoniae D39V [2], first compound 17.14 µg/mL	–	–	0.999	–	0.965	0.872
S. pneumoniae D39V [2], first compound 34.28 µg/mL	–	–	0.988	–	0.952	0.813

fitness, S. pneumoniae D39V [2], one replicate
Details	first compound 20 µg/mL	first compound 40 µg/mL	first compound 68.57 µg/mL	first compound 80 µg/mL
partner 1 µg/mL	0.951	0.899	0.997	0.159
partner 2 µg/mL	0.951	0.93	0.956	0.129
partner 4 µg/mL	0.835	0.828	0.908	0.0785

Details	Bliss interaction score
B. subtilis 168 [3]	-0.121
S. aureus DSM 20231	-0.192
S. aureus Newman	-0.0477
S. pneumoniae D39V [4]	0.0779

CN(C)C(=O)C(CCN1CCC(O)(c2ccc(Cl)cc2)CC1)(c1ccccc1)c1ccccc1 [Loperamide] + C[n+]1ccc(-c2cc[n+](C)cc2)cc1 [Paraquat]
fitness
Details	partner 1.25 µg/mL	partner 1.5 µg/mL	partner 2.5 µg/mL	partner 3 µg/mL	partner 5 µg/mL	partner 6 µg/mL
B. subtilis 168 [1], first compound 25 µg/mL	0.798	–	0.684	–	0.537	–
B. subtilis 168 [1], first compound 50 µg/mL	0.0367	–	0.0251	–	0.0432	–
B. subtilis 168 [1], first compound 100 µg/mL	0.0324	–	0.0267	–	0.0238	–
S. pneumoniae D39V [2], first compound 17.14 µg/mL	–	0.994	–	0.984	–	0.922
S. pneumoniae D39V [2], first compound 34.28 µg/mL	–	0.972	–	0.973	–	0.883

fitness, S. pneumoniae D39V [2], one replicate
Details	first compound 20 µg/mL	first compound 40 µg/mL	first compound 68.57 µg/mL	first compound 80 µg/mL
partner 1.5 µg/mL	≥ 1	≥ 1	0.934	≥ 1
partner 3 µg/mL	≥ 1	≥ 1	0.931	≥ 1
partner 6 µg/mL	≥ 1	≥ 1	0.853	≥ 1

Details	Bliss interaction score
B. subtilis 168 [3]	-0.103
S. aureus DSM 20231	0.177
S. aureus Newman	0.0662
S. pneumoniae D39V [4]	0.0549

CN(C)C(=O)C(CCN1CCC(O)(c2ccc(Cl)cc2)CC1)(c1ccccc1)c1ccccc1 [Loperamide] + Cc1cc(NS(=O)(=O)c2ccc(N)cc2)no1 [Sulfamethoxazol]
fitness, one replicate
Details	first compound 20 µg/mL	first compound 25 µg/mL	first compound 40 µg/mL	first compound 50 µg/mL	first compound 68.57 µg/mL	first compound 80 µg/mL	first compound 100 µg/mL
B. subtilis 168 [1], partner 0.5 µg/mL	–	0.0806	–	0.009	–	–	0.0009
S. pneumoniae D39V [2], partner 1 µg/mL	≥ 1	–	≥ 1	–	0.967	0.249	–
S. pneumoniae D39V [2], partner 2 µg/mL	≥ 1	–	≥ 1	–	0.968	0.89	–
S. pneumoniae D39V [2], partner 4 µg/mL	0.941	–	0.942	–	≥ 1	0.752	–

fitness
Details	partner 1 µg/mL	partner 2 µg/mL	partner 4 µg/mL
B. subtilis 168 [1], first compound 25 µg/mL	–	–	0.857
B. subtilis 168 [1], first compound 100 µg/mL	–	0.0238	0.156
S. pneumoniae D39V [2], first compound 17.14 µg/mL	0.92	0.936	0.989
S. pneumoniae D39V [2], first compound 34.28 µg/mL	0.953	0.95	0.998

Details	Bliss interaction score
B. subtilis 168 [3]	-0.178
S. aureus DSM 20231	-0.143
S. aureus Newman	0.0631
S. pneumoniae D39V [4]	0.0594

CN(C)C(=O)C(CCN1CCC(O)(c2ccc(Cl)cc2)CC1)(c1ccccc1)c1ccccc1 [Loperamide] + Cc1ncc([N+](=O)[O-])n1CCO [Metronidazole]
Details	fitness
B. subtilis 168 [1], first compound 25 µg/mL, partner 0.625 µg/mL	0.918
B. subtilis 168 [1], first compound 25 µg/mL, partner 1.25 µg/mL	0.891
B. subtilis 168 [1], first compound 25 µg/mL, partner 2.5 µg/mL	0.895
B. subtilis 168 [1], first compound 100 µg/mL, partner 1.25 µg/mL	0.214
B. subtilis 168 [1], first compound 100 µg/mL, partner 2.5 µg/mL	0.203
S. pneumoniae D39V [2], first compound 17.14 µg/mL, partner 1.25 µg/mL	0.983
S. pneumoniae D39V [2], first compound 17.14 µg/mL, partner 2.5 µg/mL	≥ 1
S. pneumoniae D39V [2], first compound 17.14 µg/mL, partner 5 µg/mL	0.99
S. pneumoniae D39V [2], first compound 20 µg/mL, partner 1.073 µg/mL	≥ 1
S. pneumoniae D39V [2], first compound 20 µg/mL, partner 2.145 µg/mL	0.921
S. pneumoniae D39V [2], first compound 20 µg/mL, partner 4.29 µg/mL	0.973
S. pneumoniae D39V [2], first compound 34.28 µg/mL, partner 1.25 µg/mL	0.99
S. pneumoniae D39V [2], first compound 34.28 µg/mL, partner 2.5 µg/mL	≥ 1
S. pneumoniae D39V [2], first compound 34.28 µg/mL, partner 5 µg/mL	0.979
S. pneumoniae D39V [2], first compound 40 µg/mL, partner 1.073 µg/mL	≥ 1
S. pneumoniae D39V [2], first compound 40 µg/mL, partner 4.29 µg/mL	0.96
S. pneumoniae D39V [2], first compound 80 µg/mL, partner 1.073 µg/mL	0.938
S. pneumoniae D39V [2], first compound 80 µg/mL, partner 2.145 µg/mL	0.898
S. pneumoniae D39V [2], first compound 80 µg/mL, partner 4.29 µg/mL	0.95

S. pneumoniae D39V [2], first compound 68.57 µg/mL, one replicate
Details	fitness
partner 1.25 µg/mL	≥ 1
partner 2.5 µg/mL	0.944
partner 5 µg/mL	≥ 1

Details	Bliss interaction score
B. subtilis 168 [3]	0.268
S. aureus DSM 20231	0.0627
S. aureus Newman	0.064
S. pneumoniae D39V [4]	0.0877

CN(C)C(=O)C(CCN1CCC(O)(c2ccc(Cl)cc2)CC1)(c1ccccc1)c1ccccc1 [Loperamide] + Cc1onc(-c2ccccc2)c1C(=O)N[C@@H]1C(=O)N2[C@@H]1SC(C)(C)[C@@H]2C(=O)O [Oxacillin]
Details	fitness
B. subtilis 168 [1], first compound 25 µg/mL, partner 0.002 µg/mL	0.749
B. subtilis 168 [1], first compound 25 µg/mL, partner 0.004 µg/mL	0.697
B. subtilis 168 [1], first compound 50 µg/mL, partner 0.002 µg/mL	0.0423
B. subtilis 168 [1], first compound 50 µg/mL, partner 0.004 µg/mL	0.0371
B. subtilis 168 [1], first compound 50 µg/mL, partner 0.008 µg/mL	0.0519
B. subtilis 168 [1], first compound 100 µg/mL, partner 0.002 µg/mL	0.0346
B. subtilis 168 [1], first compound 100 µg/mL, partner 0.004 µg/mL	0.0357
B. subtilis 168 [1], first compound 100 µg/mL, partner 0.008 µg/mL	0.0283
S. pneumoniae D39V [2], first compound 17.14 µg/mL, partner 0.01 µg/mL	0.976
S. pneumoniae D39V [2], first compound 17.14 µg/mL, partner 0.02 µg/mL	0.878
S. pneumoniae D39V [2], first compound 20 µg/mL, partner 0.01 µg/mL	0.99
S. pneumoniae D39V [2], first compound 20 µg/mL, partner 0.02 µg/mL	0.869
S. pneumoniae D39V [2], first compound 20 µg/mL, partner 0.04 µg/mL	0.156
S. pneumoniae D39V [2], first compound 34.28 µg/mL, partner 0.01 µg/mL	0.908
S. pneumoniae D39V [2], first compound 40 µg/mL, partner 0.01 µg/mL	0.859
S. pneumoniae D39V [2], first compound 40 µg/mL, partner 0.04 µg/mL	0.109
S. pneumoniae D39V [2], first compound 80 µg/mL, partner 0.04 µg/mL	0.0757

fitness, one replicate
Details	partner 0.01 µg/mL	partner 0.02 µg/mL	partner 0.04 µg/mL	partner 0.075 µg/mL	partner 0.15 µg/mL	partner 0.3 µg/mL
B. subtilis 168 [1], first compound 25 µg/mL	–	–	–	0.0507	0.0511	0.0488
B. subtilis 168 [1], first compound 50 µg/mL	–	–	–	0.0519	0.0509	0.0494
B. subtilis 168 [1], first compound 100 µg/mL	–	–	–	0.0598	0.0504	0.0472
S. pneumoniae D39V [2], first compound 68.57 µg/mL	0.979	0.901	0.618	–	–	–

Details	Bliss interaction score
B. subtilis 168 [3]	-0.0924
S. aureus DSM 20231	-0.0615
S. aureus Newman	0.077
S. pneumoniae D39V [4]	-0.33
